Source: PubChem BioAssay (NCI)
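Five concentrations, 48 hours, 96-well plates. GI50: concentration for 50% inhibition of growth. TGI: total growth inhibition.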

How the values were obtained:
Experiment in all cases: NCI-60 cell line screen, 48 h
HCT-15 colon = system: HCT-15 colon
CCRF-CEM leukemia = system: CCRF-CEM leukemia
HT29 colon = system: HT29 colon
UO-31 renal = system: UO-31 renal
NCI-H23 lung = system: NCI-H23 lung
RPMI-8226 leukemia = system: RPMI-8226 leukemia
SR leukemia = system: SR leukemia
T-47D breast = system: T-47D breast
MDA-MB-231 breast = system: MDA-MB-231 breast
TK-10 renal = system: TK-10 renal
NCI-H460 lung = system: NCI-H460 lung
BT-549 breast = system: BT-549 breast
MALME-3M melanoma = system: MALME-3M melanoma
OVCAR-8 ovarian = system: OVCAR-8 ovarian
SK-MEL-2 melanoma = system: SK-MEL-2 melanoma
NCI-H226 lung = system: NCI-H226 lung
A549 NSCLC = system: A549 NSCLC
SN12C renal = system: SN12C renal
SF-539 CNS = system: SF-539 CNS
HL-60(TB) leukemia = system: HL-60(TB) leukemia
CAKI-1 renal = system: CAKI-1 renal
OVCAR-3 ovarian = system: OVCAR-3 ovarian
MOLT-4 leukemia = system: MOLT-4 leukemia
SK-MEL-28 melanoma = system: SK-MEL-28 melanoma
DU-145 prostate = system: DU-145 prostate
SNB-75 CNS = system: SNB-75 CNS
NCI/ADR-RES ovarian = system: NCI/ADR-RES ovarian
COLO 205 colon = system: COLO 205 colon
HOP-92 NSCLC = system: HOP-92 NSCLC
A498 renal = system: A498 renal
KM12 colon = system: KM12 colon
MCF7 breast = system: MCF7 breast
SF-268 CNS = system: SF-268 CNS
SW-620 colon = system: SW-620 colon
UACC-62 melanoma = system: UACC-62 melanoma
HCT-116 colon = system: HCT-116 colon
HS 578T breast = system: HS 578T breast
M14 melanoma = system: M14 melanoma
OVCAR-4 ovarian = system: OVCAR-4 ovarian
SNB-19 CNS = system: SNB-19 CNS
ACHN renal = system: ACHN renal
K-562 leukemia = system: K-562 leukemia
U251 CNS = system: U251 CNS
SK-MEL-5 melanoma = system: SK-MEL-5 melanoma
NCI-H522 lung = system: NCI-H522 lung
OVCAR-5 ovarian = system: OVCAR-5 ovarian
SK-OV-3 ovarian = system: SK-OV-3 ovarian
HOP-62 NSCLC = system: HOP-62 NSCLC
IGROV1 ovarian = system: IGROV1 ovarian
EKVX NSCLC = system: EKVX NSCLC
786-0 renal = system: 786-0 renal
SF-295 CNS = system: SF-295 CNS
UACC-257 melanoma = system: UACC-257 melanoma
LOX IMVI melanoma = system: LOX IMVI melanoma
PC-3 prostate = system: PC-3 prostate
HCC-2998 colon = system: HCC-2998 colon
RXF 393 renal = system: RXF 393 renal
MDA-MB-435 = system: MDA-MB-435

## CCc1cccc2c3c(sc12)C(c1ccc(F)cc1)C(C#N)=C(/N=C/c1ccc(Cl)cc1)O3 (stereo not drawn)
HCT-15 colon
  GI50: 0.355 µM
  TGI: > 100 µM
CCRF-CEM leukemia
  GI50: 0.324 µM
  TGI: 44.2 µM
HT29 colon
  GI50: 0.323 µM
  TGI: 36.5 µM
UO-31 renal
  GI50: 0.553 µM
  TGI: > 100 µM
NCI-H23 lung
  GI50: 0.578 µM
  TGI: > 100 µM
RPMI-8226 leukemia
  GI50: 0.387 µM
  TGI: > 100 µM
SR leukemia
  GI50: 0.402 µM
  TGI: 19.8 µM
T-47D breast
  GI50: 0.45 µM
  TGI: > 100 µM
MDA-MB-231 breast
  GI50: 0.364 µM
  TGI: > 100 µM
TK-10 renal
  GI50: 6.8 µM
  TGI: > 100 µM
NCI-H460 lung
  GI50: 0.427 µM
  TGI: > 100 µM
BT-549 breast
  GI50: 2.05 µM
  TGI: 7.84 µM
MALME-3M melanoma
  GI50: 0.384 µM
  TGI: > 100 µM
OVCAR-8 ovarian
  GI50: 0.5 µM
  TGI: > 100 µM
SK-MEL-2 melanoma
  GI50: 0.325 µM
  TGI: 78 µM
NCI-H226 lung
  GI50: 0.379 µM
  TGI: 45.9 µM
A549 NSCLC
  GI50: 0.506 µM
  TGI: > 100 µM
SN12C renal
  GI50: 0.43 µM
  TGI: > 100 µM
SF-539 CNS
  GI50: 0.208 µM
  TGI: 0.648 µM
HL-60(TB) leukemia
  GI50: 0.222 µM
  TGI: 0.649 µM
CAKI-1 renal
  GI50: 0.149 µM
  TGI: > 100 µM
OVCAR-3 ovarian
  GI50: 0.709 µM
  TGI: > 100 µM
MOLT-4 leukemia
  GI50: 0.519 µM
  TGI: > 100 µM
SK-MEL-28 melanoma
  GI50: 0.492 µM
  TGI: > 100 µM
DU-145 prostate
  GI50: 0.579 µM
  TGI: > 100 µM
SNB-75 CNS
  GI50: 0.376 µM
  TGI: 79.8 µM
NCI/ADR-RES ovarian
  GI50: 0.192 µM
  TGI: 0.683 µM
COLO 205 colon
  GI50: 0.373 µM
  TGI: 2.95 µM
HOP-92 NSCLC
  GI50: 22.4 µM
  TGI: > 100 µM
A498 renal
  GI50: > 100 µM
  TGI: > 100 µM
KM12 colon
  GI50: 0.701 µM
  TGI: > 100 µM
MCF7 breast
  GI50: 0.392 µM
  TGI: > 100 µM
SF-268 CNS
  GI50: 6.26 µM
  TGI: > 100 µM
SW-620 colon
  GI50: 0.471 µM
  TGI: > 100 µM
UACC-62 melanoma
  GI50: 0.352 µM
  TGI: > 100 µM
HCT-116 colon
  GI50: 0.383 µM
  TGI: > 100 µM
HS 578T breast
  GI50: 0.255 µM
  TGI: 80.2 µM
M14 melanoma
  GI50: 0.335 µM
  TGI: > 100 µM
OVCAR-4 ovarian
  GI50: 97.6 µM
  TGI: > 100 µM
SNB-19 CNS
  GI50: 0.988 µM
  TGI: > 100 µM
ACHN renal
  GI50: 0.824 µM
  TGI: > 100 µM
K-562 leukemia
  GI50: 0.128 µM
  TGI: > 100 µM
U251 CNS
  GI50: 0.369 µM
  TGI: 34.2 µM
SK-MEL-5 melanoma
  GI50: 0.319 µM
  TGI: 18 µM
NCI-H522 lung
  GI50: 0.066 µM
  TGI: 0.381 µM
OVCAR-5 ovarian
  GI50: 0.421 µM
  TGI: > 100 µM
SK-OV-3 ovarian
  GI50: 0.412 µM
  TGI: > 100 µM
HOP-62 NSCLC
  GI50: 0.312 µM
  TGI: > 100 µM
IGROV1 ovarian
  GI50: 0.498 µM
  TGI: > 100 µM
EKVX NSCLC
  GI50: 0.488 µM
  TGI: > 100 µM
786-0 renal
  GI50: 0.661 µM
  TGI: > 100 µM
SF-295 CNS
  GI50: 0.278 µM
  TGI: > 100 µM
UACC-257 melanoma
  GI50: 43.4 µM
  TGI: > 100 µM
LOX IMVI melanoma
  GI50: 0.576 µM
  TGI: > 100 µM
PC-3 prostate
  GI50: 0.501 µM
  TGI: > 100 µM
HCC-2998 colon
  GI50: 1.14 µM
  TGI: > 100 µM

## c1ccc(-c2n(Cc3ccc4ccccc4c3)c3c4ccccc4c4ccccc4c3[n+]2Cc2ccc3ccccc3c2)cc1
HCT-15 colon
  GI50: 0.966 µM
  TGI: 2.63 µM
CCRF-CEM leukemia
  GI50: 0.357 µM
  TGI: 1.75 µM
HT29 colon
  GI50: 0.179 µM
  TGI: 1.38 µM
UO-31 renal
  GI50: 1.55 µM
  TGI: 3.22 µM
NCI-H23 lung
  GI50: 0.228 µM
  TGI: 0.79 µM
RPMI-8226 leukemia
  GI50: 0.261 µM
  TGI: 1.04 µM
SR leukemia
  GI50: 0.245 µM
  TGI: 0.825 µM
T-47D breast
  GI50: 0.367 µM
  TGI: 1.84 µM
MDA-MB-231 breast
  GI50: 0.313 µM
  TGI: 1.06 µM
TK-10 renal
  GI50: 0.468 µM
  TGI: 2 µM
BT-549 breast
  GI50: 0.316 µM
  TGI: 1.29 µM
SK-MEL-2 melanoma
  GI50: 0.294 µM
  TGI: 0.853 µM
NCI-H226 lung
  GI50: 0.408 µM
  TGI: 1.85 µM
SN12C renal
  GI50: 0.323 µM
  TGI: 1.21 µM
SF-539 CNS
  GI50: 0.375 µM
  TGI: 1.4 µM
HL-60(TB) leukemia
  GI50: 0.157 µM
  TGI: 0.38 µM
CAKI-1 renal
  GI50: 0.389 µM
  TGI: 1.52 µM
OVCAR-3 ovarian
  GI50: 0.351 µM
  TGI: 1.23 µM
MOLT-4 leukemia
  GI50: 0.377 µM
  TGI: 1.39 µM
SK-MEL-28 melanoma
  GI50: 0.569 µM
  TGI: 1.87 µM
DU-145 prostate
  GI50: 0.406 µM
  TGI: 1.52 µM
SNB-75 CNS
  GI50: 0.303 µM
  TGI: 1.4 µM
NCI/ADR-RES ovarian
  GI50: 1.63 µM
  TGI: 3.66 µM
COLO 205 colon
  GI50: 0.267 µM
  TGI: 0.795 µM
HOP-92 NSCLC
  GI50: 0.211 µM
  TGI: 0.74 µM
A498 renal
  GI50: 0.337 µM
  TGI: 1.23 µM
KM12 colon
  GI50: 0.395 µM
  TGI: 1.51 µM
MCF7 breast
  GI50: 0.304 µM
  TGI: 1.36 µM
SF-268 CNS
  GI50: 0.441 µM
  TGI: 1.84 µM
SW-620 colon
  GI50: 0.329 µM
  TGI: 1.37 µM
UACC-62 melanoma
  GI50: 0.343 µM
  TGI: 1.4 µM
HCT-116 colon
  GI50: 0.183 µM
  TGI: 1.14 µM
HS 578T breast
  GI50: 0.434 µM
  TGI: 2.05 µM
OVCAR-4 ovarian
  GI50: 0.298 µM
  TGI: 1.27 µM
SNB-19 CNS
  GI50: 0.364 µM
  TGI: 1.45 µM
RXF 393 renal
  GI50: 0.28 µM
  TGI: 1.03 µM
ACHN renal
  GI50: 0.708 µM
  TGI: 1.93 µM
K-562 leukemia
  GI50: 0.271 µM
  TGI: 1.18 µM
U251 CNS
  GI50: 0.312 µM
  TGI: 1.56 µM
SK-MEL-5 melanoma
  GI50: 0.203 µM
  TGI: 0.437 µM
NCI-H522 lung
  GI50: 0.34 µM
  TGI: 1.63 µM
OVCAR-5 ovarian
  GI50: 0.423 µM
  TGI: 1.7 µM
SK-OV-3 ovarian
  GI50: 0.317 µM
  TGI: 1.12 µM
HOP-62 NSCLC
  GI50: 0.358 µM
  TGI: 1.59 µM
IGROV1 ovarian
  GI50: 0.192 µM
  TGI: 1.34 µM
EKVX NSCLC
  GI50: 0.552 µM
  TGI: 2.03 µM
786-0 renal
  GI50: 0.337 µM
  TGI: 1.34 µM
SF-295 CNS
  GI50: 0.282 µM
  TGI: 1.11 µM
MDA-MB-435
  GI50: 0.34 µM
  TGI: 1.25 µM
UACC-257 melanoma
  GI50: 0.328 µM
  TGI: 1.24 µM
LOX IMVI melanoma
  GI50: 0.177 µM
  TGI: 0.355 µM
PC-3 prostate
  GI50: 0.313 µM
  TGI: 1.22 µM
HCC-2998 colon
  GI50: 0.407 µM
  TGI: 1.58 µM
